Values of other authors, collected in US20260024640A1, “SYSTEM AND METHOD I[…] COMPUTER FOR THE CONTROL OF […] THROUGH FUZZY CONTROL” (SmartTIVA Inc, priority 2022, published 2026).
Where two headings read alike, the source gives them in different places.

Tests used:
[1] = Schnider
[2] = Marsh
[3] = General Model (LBM calculated by weight, age, gender)

CC(C)c1cccc(C(C)C)c1O [Propofol]
V1 ([1]; 70 kg, male, height: 170 cm): 4.27 L | k13 ([1]; 70 kg, male, height: 170 cm): 0.196 min⁻¹ | k21 ([1]; 70 kg, male, height: 170 cm): 0.067 min⁻¹ | keo ([1]; 70 kg, male, height: 170 cm): 0.456 min⁻¹ | V1 [1, 3]: 4.27 L | k13 [1, 3]: 0.196 min⁻¹ | keo [1, 3]: 0.456 min⁻¹ | V1 ([2]; 70 kg): 15.9 L | k21 ([2]; 70 kg): 0.055 min⁻¹ | k31 ([2]; 70 kg): 0.0033 min⁻¹ | keo ([2]; 70 kg): 0.26 min⁻¹ | V1 ([2]; General Model): 0.228 L/kg | k21 ([2]; General Model): 0.055 min⁻¹ | k31 ([2]; General Model): 0.0033 min⁻¹ | keo ([2]; General Model): 0.26 min⁻¹
